System: COPD induced mice
Test: Anti-COPD effect in cigarette smoke + LPS COPD mouse model
Format: in vivo, C57BL/6N mouse
Conditions: for activity of neutrophils elastase enzyme in BALF comparing with COPD induced group / reduced level of ROS in BALF comparing with COPD induced group / reduced level of neutrophils in BALF comparing with COPD induced group / reduced level of proteins in BALF comparing with COPD induced group / reduced level of IL-6 in BALF comparing with COPD induced group / reduced level of TNF-alpha in BALF comparing with COPD induced group: COPD mice; for reduced level of IL-6 in BALF comparing with COPD induced group / reduced level of TNF-alpha in BALF comparing with COPD induced group: ELISA
Experimental: In order to determine the anti-COPD effect of inventive compounds in COPD animal model, following test was performed by using COPD induced mice as disclosed in the literature (Bhaysar, T. et al., J. Chronic Obstr. […]. Dis., 2008, 3, 477-481). Specific pathogen-free male C57BL/6N mouse (about 22-24 g), aged 6 weeks, which were routinely screened serologically for relevant respiratory pathogens, were purchased from Koatech Co. (koatech.co.kr, Seoul, Korea) and bred allowing to access freely to feed (antibiotic free, Samyang Oil & Feed Corp., Korea) and water in breeding room controlling the temperature of 22±2° C., and humidity of 55±15% at the light-dark cycle for 12 hours and acclimated with the experimental environment for 1 week. 2 kinds of test samples, […] ingredient: Roflumilast, 10 mg/kg) were dissolved in 0.5% sodium carboxymethyl cellulose ([…], Sigma-Aldrich, USA) and used as test samples. KS534, and Rolflumilast (ROF 11-492, HETERO, India) were orally administrated to the mice, 1 hour before prior the intratracheal instillation (i.t.). 3R4F Kentuchy Reference Cigarettes ([…], USA) was used as a standard cigarette for generating a cigarette smoke. The cigarette containing 9.4 mg of tar, 11 mg of TPM (total particle matter) and 12 mg of carbon monooxide per piece, was used after harmonizing with the temperature of 22±1° C. and humidity of 60±2% after opening for 48-72 hrs. The exposure of cigarette smoke was performed by using a cigarette smoke generator (DBL Co. Ltd., dhbiolink.com, Korea). The mice were divided into five groups: normal (NC), COPD (cigarette smoke with LPS intranasal instillation), Rof (10 mg/kg of roflumilast, p.o.+cigarette smoke with LPS intranasal instillation), and KS534-15 and 30 (15 mg/kg and 30 mg/kg of KS534, p.o.+cigarette smoke with LPS instillation, respectively). Exposure of cigarette smoke (one puff/min, 35 ml puff volume over 2 s, every 60 s, 8 cigarettes per day) was conducted using a cigarette smoke generator. The mice received 1 h of cigarette smoke exposure in an exposure chamber (50 cm×30 cm×30 cm) for 3 days. Roflumilast and piscroside C were administered to mice by oral lavage 1 h before cigarette smoke exposure for 3 days. LPS was intranasally instilled ([…] dissolved in 50 μL distilled water) under anesthesia 1 h after the final exposure to cigarette smoke. After the end of experiment, the blood, BALF, and pneumonocyte of each rat were isolated and collected to test. After finishing the experiment, rats were anaesthetized with Zoleti150 (3VX9, Virbac, France, p.o) and the blood was delivered through caudal veins. In order to isolate BALF from lung, the bronchus of right lung was ligated with suture and then performed to tracheostomy. IV-use catheter (16 GA, 3S-Cath, Dukwoo, Korea) was put into the bronchus, and both of bronchus and catheter (16 GA, 3S-Cath, Dukwoo, Korea) were fixed with suture. The injector containing 1 ml of DPBS 0.7 (Dubecco's phosphate-buffered saline, Invitrogen, USA) was connected thereto and DPBS was forced to circulate three times to isolate BALF. The right lung ligated with suture was isolated, fixed with 10% neutral formalin solution, and the remaining lung tissue was reserved in refrigerator at -70° C. The isolated BALF was centrifuged for 15 mins at 1500 rpm to prepare cell pellet and the supernatant was reserved in refrigerator at -70° C. for cytokine analysis. The cell pellet was suspended in DPBS, and the cell was attached to a slide glass using by cytospin centrifuge (CS03270047, Hanil, Korea). Diff-Quik staining (ZS1003, Sysmex, Japan) was performed and the cell was observed by optical microscopy (DM1000, Leica, German) to count the number of immunocyte in each test sample. The level of ROS in BALF isolated from the mice was determined by DCF-DA (dihydrodo chloro fluoresce indiacetate, 35854, Sigma-Aldrich, USA) and the final concentration of DCF-DA was adjusted to 20 μm in 200 μL to incubate 30 mins. […]

With O=C(CO)O[C@@H]1O[C@@H]2C[C@H]3[C@H](OC(=O)c4ccc(O)c(O)c4)[C@@H](Cl)[C@@](O)(CO2)[C@@H]13 [KS-534, (3R,5S,5aS,6R,7S,8R,8aS)-8-chloro-8a-hydroxy-5-(2-hydroxyacetoxy) hexahydro-1H-3,6-methanocyclopenta[e][1,3]dioxepin-7-yl3,4-dihydroxybenzoate] the “activity of neutrophils elastase enzyme in BALF comparing with COPD induced group” value (15 mg/kg p.o.) was “remarkably reduced”, the “reduced level of ROS in BALF comparing with COPD induced group” value (15 mg/kg p.o.) was 19.5% and the “reduced level of neutrophils in BALF comparing with COPD induced group” value (15 mg/kg p.o.) was 26.3%. The “reduced level of proteins in BALF comparing with COPD induced group” value (15 mg/kg p.o.) was 20.8%, the “reduced level of IL-6 in BALF comparing with COPD induced group” value (15 mg/kg p.o.) was 35.8% and the “reduced level of TNF-alpha in BALF comparing with COPD induced group” value (15 mg/kg p.o.) was 18.3%. The “activity of neutrophils elastase enzyme in BALF comparing with COPD induced group” value (30 mg/kg p.o.) was “remarkably reduced”, the “reduced level of ROS in BALF comparing with COPD induced group” value (30 mg/kg p.o.) was 27.5% and the “reduced level of neutrophils in BALF comparing with COPD induced group” value (30 mg/kg p.o.) was 25.7%. The “reduced level of proteins in BALF comparing with COPD induced group” value (30 mg/kg p.o.) was 28.5%, the “invasion of the inflamed cells in lung tissue (histology)” value (30 mg/kg p.o., COPD mice (FIG. 14)) was “significantly reduced” and the “reduced level of IL-6 in BALF comparing with COPD induced group” value (30 mg/kg p.o.) was 50.6%. The “reduced level of TNF-alpha in BALF comparing with COPD induced group” value (30 mg/kg p.o.) was 27.6%.
